{"source": "patent US6602825B1", "about": "“1-Aryl-1,3,5-triazine-4-thione-2,6-diones, production thereof and use thereof as herbicides” (BASF Aktiengesellschaft, priority 2001, dated 2003)"}
{"units": {"melting point": "°C"}}
{"smiles": "Cn1c(=S)n(C)c(=O)n(-c2cc(C(=O)O)c(Cl)cc2F)c1=O", "note": "[Compound No. 28, 2-Chloro-5-(3,5-dimethyl-2,6-dioxo-4-thioxo-[1,3,5]triazinan-1-yl)-4-fluorobenzoic acid]", "melting point": "225 to 229"}
{"smiles": "Cn1c(=S)n(C)c(=O)n(-c2c(F)cc(Cl)c3ncoc23)c1=O", "note": "[Compound No. 65, 3-(4-chloro-6-fluorobenzoxazol-7-yl)-1,5-dimethyl-6-thioxo-[1,3,5]triazinane-2,4-dione]", "melting point": "209 to 211"}
{"smiles": "CCc1nc2c(Cl)cc(F)c(-n3c(=O)n(C)c(=S)n(C)c3=O)c2o1", "note": "[Compound No. 66, 3-(4-chloro-2-ethyl-6-fluorobenzoxazol-7-yl)-1,5-dimethyl-6-thioxo-[1,3,5]triazinane-2,4-dione]", "melting point": "156 to 159"}
